One data set addresses cyclophilin A (Homo sapiens, UniProt P62937). Conditions: background statement; cited from earlier work.
A further data set can be described thus: physchem. In kind it is physicochemical. As to conditions: water, thermodynamic from solid. On the procedure: Agilent 1100 HPLC was utilized to measure solubility and purity, method listed in Table 4 and Table 5, respectively.
Solubility of the crystalline form A was estimated in six solvents at RT. Approximately 2 mg of solids were weighed into each 3-mL glass vial, to which each of the solvents in Table 8 was added in increments of 100 μL until the solids dissolved completely or the total volume reached 2 mL.

Data set [1] is described as follows: Heating experiments with HPLC purity of heated samples. The format is physicochemical. On the procedure: Agilent 1100 HPLC was utilized to measure solubility and purity, method listed in Table 4 and Table 5, respectively. To figure out if a different crystal form of freebase existed at elevated temperature as shown by two endothermic peaks in DSC curve in FIG. 2, heating experiments of the crystalline form A were conducted and HPLC purity of heated samples was also detected. […] Also, lower purity at 150° C. compared with 160° C. was speculated to be related to increasing isothermal time.

Data set [2] is described as follows: Stress testing under high temperature (60° C.). In kind it is physicochemical. Conditions: for Purity / Change of purity in the high temperature test: 60° C.
Data set [3] in a line: Stress testing under high photolysis (4500 Lux). In kind it is physicochemical.
Details of data set [4]: species or system beagle dogs. As to conditions: dog. The procedure: Pharmacokinetic test of compounds in beagle dogs (weigh: 10-12 kg, male, age: 10-12 months, three members in each oral group and intravenous group) was shown as follows.
Beagle dogs received test compounds at a dose of 2.5 mg/kg or 5 mg/kg by oral gavage or at a dose of 1 mg/kg or 2 mg/kg by intravenous injection.
Blood samples of vein were taken at 0.083, 0.25, 0.5, 1, 2, 4, 6, 8 and 24 hours after the administration, and collected in anticoagulation tube with EDTA-K2. The test compounds were extracted from plasma samples by liquid-liquid extraction. Then quantitative analysis was performed on a triple-quadrupole tandem mass spectrometer using multiple reaction monitoring (MRM). Pharmacokinetic parameters were calculated using a noncompartmental method by WinNonLin 6.3 software.

On the set-up of data set [5]: species or system ICR mice. Conditions: mouse. On the procedure: Pharmacokinetic test of compounds in mice (weigh: 20-25 g, male, age: 45-60 days, three members in each oral group and intravenous group) was shown as follows.
ICR mice received test compounds at a dose of 10 mg/kg by oral gavage or at a dose of 2 mg/kg or 10 mg/kg by tail intravenous injection. Blood samples of orbital vein were taken at 0.083, 0.25, 0.5, 1, 2, 4, 6, 8 and 24 hours after the administration, and collected in anticoagulation tube with EDTA-K2. The test compounds were extracted from plasma samples by liquid-liquid extraction. Then quantitative analysis was performed on a triple-quadrupole tandem mass spectrometer using multiple reaction monitoring (MRM). Pharmacokinetic parameters were calculated using a noncompartmental method by WinNonLin 6.1 software.

On the set-up of data set [6]: species or system SD rats. Conditions: rat. On the procedure: Pharmacokinetic test of compounds of the invention in SD rats (weigh: 200-250 g, male, age: 2-3 months, three members in each oral group and intravenous group) was shown as follows. Rats received test crystal form A at a dose of 2.5 mg/kg or 5 mg/kg by oral gavage or at a dose of 1 mg/kg by intravenous injection. Blood samples of vein were taken at 0.083, 0.25, 0.5, 1, 2, 5, 7 and 24 hours after the administration, and collected in anticoagulation tube with EDTA-K2. The test compounds were extracted from plasma samples by liquid-liquid extraction. Then quantitative analysis was performed on a triple-quadrupole tandem mass spectrometer using multiple reaction monitoring (MRM). Pharmacokinetic parameters were calculated using a noncompartmental method by WinNonLin 6.3 software.

For data set [7], the system named is con 1b derived bi-cistronic replicon. The data set can be described thus: HCV replicon assay, con 1b bi-cistronic replicon. The format is cell-based. Conditions: Hepatitis C virus, LUC endpoint, 72 hours. The source says: (§1) The purpose of this study was to assess the potential anti-HCV activity of SCY-635 (free base crystalline form A) in the well-characterized genotype-1 replicon. The first reproducible HCV replication system in cell culture (Huh7 hepatoma cell line) was reported in 1999 (Lohmann et al., 1999). The assay utilizes bi-cistronic subgenomic viral RNAs, or replicons, that encode nonstructural proteins and have the cis RNA elements required for autonomous replication. Replicons are self-replicating RNA molecules that contain all of the nucleotide sequences required for HCV replication, transcription, and translation, but are not infectious.
(§2) SCY-635 (free base crystalline form A) was studied in the HCV Replicon assay to evaluate its ability to inhibit HCV genomic replication. […]
(§3) The compound was dissolved in dimethyl sulfoxide (DMSO) and diluted into culture medium at five half-log concentrations, ranging from either 0.02 to 2.0 μM (for SCY-635), or 0.2 to 20 μM (for CsA). […] EC50 and EC90 values were derived from HCV RNA levels assessed as HCV RNA replicon derived LUC activity. […] IC50 and IC90 values were calculated using a colorimetric assay as an indication of cell numbers and cytotoxicity. […]

Data set [8] deals with con 1b derived full length replicon. The experiment in a line: HCV replicon assay, con 1b full length replicon. Conditions: Hepatitis C virus. In kind it is cell-based. (In general: In antiviral work, replicon cells carry a viral genome segment that copies itself.)
The test system of data set [9] is H77 replicon (genotype 1a). The experiment in a line: HCV replicon assay, H77 replicon. The format is cell-based. As to conditions: Hepatitis C virus.
From the text: as §1, §2, §3

Data set [10] concerns human hepatoma cell line ET (lub ubi neo/ET). The experiment in a line: Cytotoxicity in the replicon assay (colorimetric assay of cell numbers). Conditions: replicon cells, 72 hours.
From the text: SCY-635 (free base crystalline form A) was examined in the human hepatoma cell line ET (lub ubi neo/ET), an HCV RNA replicon containing a stable luciferase (LUC) reporter. The HCV RNA replicon ET contains the 5′ end of HCV (with the HCV Internal Ribosome Entry Site (IRES) and the first few amino acids of the HCV core protein) which drives the production of a firefly luciferase (LUC), ubiquitin, and neomycin phosphotransferase (NeoR) fusion protein. Ubiquitin cleavage releases the LUC and NeoR proteins. The EMCV IRES element controls the translation of the HCV […] NS3-NS5. The NS3 protein cleaves the HCV polyprotein to release the mature NS3, NS4A, NS4B, NS5A and NS5B proteins that are required for HCV replication. The 3′ end of the replicon contains the authentic 3′ NTR of HCV. […]
as §3

For data set [11] the following is noted: monkey, in vivo.
The conditions of data set [12]: in vivo.
The mark [13] stands for this setting: heated to 150 °C, isothermal 20 min.
Setting [14] is: heated to 160 °C, isothermal 3 min.
Where [15] appears, read: heated to 170 °C, isothermal 2 min.
Setting [16] is: heated to 180 °C, isothermal 3 min.
Where [17] appears, read: day 0, listed as The crystalline form A of SCY-635 free base.
The mark [18] stands for this setting: listed as crystalline form A of SCY-635 free base.

“And” between values parts separate entries of the source, which are not always exact repeats. Identical values can stand only once. Like-named read-outs stand apart in the source and are kept apart here.

Sequence of cyclophilin A (P62937 whole entry, species assumed): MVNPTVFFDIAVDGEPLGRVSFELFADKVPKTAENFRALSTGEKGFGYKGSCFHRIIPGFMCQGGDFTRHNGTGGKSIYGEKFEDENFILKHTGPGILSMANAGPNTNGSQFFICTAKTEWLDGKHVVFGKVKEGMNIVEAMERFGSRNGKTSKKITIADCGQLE

For `C/C=C/C[C@@H](C)[C@@H](O)[C@H]1C(=O)N[C@@H](CC)C(=O)N(C)[C@H](SCCN(C)C)C(=O)N(C)[C@@H](CC(C)(C)O)C(=O)N[C@@H](C(C)C)C(=O)N(C)[C@@H](CC(C)C)C(=O)N[C@@H](C)C(=O)N[C@H](C)C(=O)N(C)[C@@H](CC(C)C)C(=O)N(C)[C@@H](CC(C)C)C(=O)N(C)[C@@H](C(C)C)C(=O)N1C` [SCY-635], the “Concentration inhibiting peptidyl prolyl isomerase (PPlase) catalytic activity” value on cyclophilin A is “low nanomolar”.

As usually defined, the solubility is how much of the substance goes into solution per volume. Read a low solubility as a poorly soluble substance. As usually defined, the EC50 is the concentration giving half of the maximal effect. A higher EC50 goes with a less potent agent. One may read the EC90 as the concentration needed for an effect of 90%. Higher therefore signals weaker potency. `C/C=C/C[C@@H](C)[C@@H](O)[C@H]1C(=O)N[C@@H](CC)C(=O)N(C)[C@H](SCCN(C)C)C(=O)N(C)[C@@H](CC(C)(C)O)C(=O)N[C@@H](C(C)C)C(=O)N(C)[C@@H](CC(C)C)C(=O)N[C@@H](C)C(=O)N[C@H](C)C(=O)N(C)[C@@H](CC(C)C)C(=O)N(C)[C@@H](CC(C)C)C(=O)N(C)[C@@H](C(C)C)C(=O)N1C` [SCY-635 free base crystalline form A, (3 S,6S,9S,12R,15S,18S,21S,24S,27R,30S,33S)-27-((2-(dimethylamino)ethyl)thio)-30-ethyl-33-((1R,2R,E)-1-hydroxy-2-methylhex-4-en-1-yl)-24-(2-hydroxy-2-methylpropyl)-6,9,18-triisobutyl-3,21-diisopropyl-1,4,7,10,12,15,19,25,28-nonamethyl-1,4,7,10,13,16,19,22,25,28,31-undecaazacyc lotritriacontan-2,5,8,11,14,17,20,23,26,29,32-undecaone]: the solubility in “physchem” is less than 1100 µg/mL. Further, the Appearance result in data set [1] (setting [13]), in [1] (setting [14]), in data set [1] (setting [15]) and in data set [1] (setting [16]) was “Liquated” throughout. Further, the Purity in data set [1] (setting [13]) amounted to 95.6 Area %; in [1] (setting [14]), 97.6 Area %; in data set [1] (setting [15]) it was 94.3 Area %; in data set [1] (setting [16]) it was 88.3 Area %; in [1] (starting material, not heated), 100.0 Area %; in data set [2] (setting [17]) it was 98.0%. For the same molecule, the Purity in data set [2] (day 10, listed as The crystalline form A of SCY-635 free base) was 98.1%; in [2] (day 30) it was 98.0%; in [3] (setting [17]), 98.0%; in data set [3] (day 30) it was 98.0%. Also, the “Solid form after heating (XRPD)” value in [1] (heated to 160° C.) was “converted to be amorphous”. The “Change of purity in the high temperature test” value in data set [2] (setting [18]) was “not changed”. Further, the “Total impurity and major impurities in stress testing” value in [2] (high temperature and photolysis conditions) was “did not increase”. Also, the “Change of purity in the high photolysis test” value in data set [3] (setting [18]) is given as “not changed”. The “Pharmacokinetic properties in vivo” value in data set [4], in data set [5] and in [6] was “better pharmacokinetic properties” throughout. Further, the Oral bioavailability entry in data set [4] (in vivo, po) was “orally bioavailable”; in [5] (in vivo, po), “orally bioavailable”; in data set [6] (in vivo, po) it was “orally bioavailable”; in data set [11] it was “orally bioavailable”; in [12] (human, po) it was “orally bioavailable”. Besides, the EC50 was 100 nM and 0.132 µg/mL in data set [7]; 170 nM and 0.225 µg/mL in data set [8]; 0.198 µg/mL and 150 nM in data set [9]. The concentration for an effect of 90% (EC90) in [7] is 350 nM and 0.463 µg/mL; in [8], 690 nM and 0.912 µg/mL; in data set [9], 1.38 µM and 1.82 µg/mL. Besides, the “Cell cytotoxicity in the replicon assay” value in data set [10] was “absence of cell cytotoxicity”. Also, the Pharmacokinetic behavior result in data set [12] is “dose-dependent pharmacokinetic behavior”.

`C/C=C/C[C@@H](C)[C@@H](O)[C@H]1C(=O)N[C@@H](CC)C(=O)N(C)[C@H](SCCN(C)C)C(=O)N(C)[C@@H](CC(C)(C)O)C(=O)N[C@@H](C(C)C)C(=O)N(C)[C@@H](CC(C)C)C(=O)N[C@@H](C)C(=O)N[C@H](C)C(=O)N(C)[C@@H](CC(C)C)C(=O)N(C)[C@@H](CC(C)C)C(=O)N(C)[C@@H](C(C)C)C(=O)N1C` [The amorphous form of SCY-635 free base]: in data set [2], the “Change of purity in the high temperature test” value is given as “continued to decrease”. In addition, the Purity in [2] (day 0) is on record as 98.2%; in data set [2] (day 10), 97.9%; in data set [2] (day 50), 97.7%; in [3] (day 0) it was 98.2%; in data set [3] (day 10), 98.1%; in data set [3] (day 50), 98.0%. Also, the “Change of purity in the high photolysis test” value in data set [3] is on record as “continued to decrease”.

Values taken from US11993664B2, “Crystalline form of compound and uses thereof in medicine” (priority 2018, dated 2024).
